Laboratory results as given in ChEMBL document CHEMBL5614389, “Design, synthesis, and biological evaluation of RSL3-based GPX4 degraders with hydrophobic tags” (Eur J Med Chem, 2024).
The source made the active and inactive calls. The rule behind the calls is not given here.

How the values were obtained:
HT-1080 [1] = experiment: Antiproliferative activity against human HT-1080 cells assessed as inhibition of cell growth incubated for 72 hrs by MTT assay; type: functional, cell-based; conditions: HT-1080, 72 h
HT-1080 [2] = experiment: HyT activity at GPX4/E3 ligase in human HT-1080 cells assessed as degradation of GPX4 protein at 0.05 uM incubated for 24 hrs by Western blotting analysis relative to control; type: cell-based
HT-1080 [3] = experiment: HyT activity at GPX4/E3 ligase in human HT-1080 cells assessed as degradation of GPX4 protein at 0.2 uM incubated for 24 hrs by Western blotting analysis relative to control; type: cell-based
HT-1080 [4] = experiment: HyT activity at GPX4/E3 ligase in human HT-1080 cells assessed as degradation of GPX4 protein at 0.05 uM incubated for 12 hr by Western blotting analysis; type: cell-based
MDA-MB-231 [5] = experiment: Antiproliferative activity against human MDA-MB-231 cells assessed as inhibition of cell growth incubated for 72 hrs by MTT assay; type: functional, cell-based; conditions: MDA-MB-231, 72 h
786-0 = experiment: Antiproliferative activity against human 786-0 cells assessed as inhibition of cell growth incubated for 72 hrs by MTT assay; type: functional, cell-based; conditions: 786-0, 72 h
OS-RC-2 = experiment: Antiproliferative activity against human OS-RC-2 cells assessed as inhibition of cell growth incubated for 72 hrs by MTT assay; type: functional, cell-based; conditions: OS-RC-2, 72 h
HT-1080 [6] = experiment: HyT activity at GPX4/E3 ligase in human HT-1080 cells assessed as degradation of GPX4 protein incubated for 24 hrs by Western blotting analysis; type: cell-based
[7] = HyT activity at GPX4/E3 ligase in human HT-1080 cells assessed as degradation of GPX4 protein by measuring degradation concentration incubated for 24 hrs by Western blotting analysis; type: cell-based; conditions: HT-1080, 24 h
HT-1080 [8] = experiment: HyT activity at GPX4/E3 ligase in human HT-1080 cells assessed as degradation of GPX4 protein at 0.05 uM incubated for 7 hrs by Western blotting analysis; type: cell-based
HT-1080 [9] = experiment: HyT activity at GPX4/E3 ligase in human HT-1080 cells assessed as degradation of GPX4 protein at 0.05 uM incubated for 12 hrs by Western blotting analysis relative to control; type: cell-based
HT-1080 [10] = experiment: HyT activity at GPX4/E3 ligase in human HT-1080 cells assessed as degradation of GPX4 protein at 0.05 uM incubated for 20 hrs by Western blotting analysis; type: cell-based
HT-1080 [11] = experiment: HyT activity at GPX4/E3 ligase in human HT-1080 cells assessed as degradation of GPX4 protein at 0.05 uM by Western blotting analysis; type: cell-based; conditions: TDE = time-dependent effect
HT-1080 [12] = experiment: HyT activity at GPX4/E3 ligase in human HT-1080 cells assessed as degradation of GPX4 protein at 0.05 uM measured after 4 hrs in presence of cycloheximide by Western blotting analysis; type: cell-based
HT-1080 [13] = experiment: HyT activity at GPX4/E3 ligase in human HT-1080 cells assessed as degradation of GPX4 protein at 0.05 uM in presence of cycloheximide by Western blotting analysis; type: cell-based; conditions: TDE = time-dependent effect
HT-1080 [14] = experiment: HyT activity at GPX4/E3 ligase in human HT-1080 cells assessed as degradation of GPX4 protein at 0.05 uM incubated for 12 hr in presence of MG132 by Western blotting analysis; type: cell-based
HT-1080 [15] = experiment: HyT activity at GPX4/E3 ligase in human HT-1080 cells assessed as degradation of GPX4 protein at 0.05 uM incubated for 12 hr in presence of chloroquine by Western blotting analysis; type: cell-based
MDA-MB-231 [16] = experiment: Antiproliferative activity against human MDA-MB-231 cells assessed as fold increase in inhibition of cell growth incubated for 72 hrs by MTT assay relative to RSL3; type: functional
HT-1080 [17] = experiment: Induction of ferroptosis in human HT-1080 cells assessed as increase in lipid peroxidation at 0.2 to 0.5 uM incubated for 4 hrs by C11 BODIPY 581/591 dye based flow cytometry; type: functional, cell-based; conditions: dose 0.2-0.5 µM
HT-1080 [18] = experiment: Induction of ferroptosis in human HT-1080 cells assessed as increase in ROS production at 0.2 to 0.5 uM incubated for 4 hrs by DCFH-DA dye based flow cytometry; type: functional, cell-based; conditions: dose 0.2-0.5 µM
HT-1080 [19] = experiment: Induction of ferroptosis in human HT-1080 cells assessed as increase in lipid peroxidation at 0.2 to 0.5 uM incubated for 4 hrs in presence of ferrostatin-1 by C11 BODIPY 581/591 dye based flow cytometry; type: functional, cell-based; conditions: dose 0.2-0.5 µM
HT-1080 [20] = experiment: Induction of ferroptosis in human HT-1080 cells assessed as increase in ROS production at 0.2 to 0.5 uM incubated for 4 hrs in presence of ferrostatin-1 by DCFH-DA dye based flow cytometry; type: functional, cell-based; conditions: dose 0.2-0.5 µM

Row | SMILES | IC50 (HT-1080 [1]) [µM] | Activity (HT-1080 [2]) [%] | Activity (HT-1080 [3]) [%] | further results
1 | COC(=O)[C@H]1Cc2c([nH]c3ccccc23)[C@H](c2ccc(C(=O)N3CCN(CCCCNC(=O)CC45CC6CC(CC(C6)C4)C5)CC3)cc2)N1C(=O)CCl | 0.2 | – | – | –
2 | COC(=O)[C@H]1Cc2c([nH]c3ccccc23)[C@H](c2ccc(C(=O)NCCCCNC(=O)CC34CC5CC(CC(C5)C3)C4)cc2)N1C(=O)CCl | 0.122 | 15 | 37 | –
3 | COC(=O)[C@H]1Cc2c([nH]c3ccccc23)[C@H](c2ccc(C(=O)NCCNC(=O)CC34CC5CC(CC(C5)C3)C4)cc2)N1C(=O)CCl | 0.058 | 33 | 52 | –
4 | COC(=O)c1ccc([C@H]2c3[nH]c4ccccc4c3C[C@H](C(=O)OC)N2C(=O)CCl)cc1 | 0.09 | 21 | 39 | Activity (HT-1080 [4]): Active; IC50 (MDA-MB-231 [5]): 0.129 µM; IC50 (786-0): 0.047 µM; IC50 (OS-RC-2): 0.082 µM
5 | COC(=O)[C@H]1Cc2c([nH]c3ccccc23)[C@H](c2ccc(C(=O)NCCCCCNC(=O)CC34CC5CC(CC(C5)C3)C4)cc2)N1C(=O)CCl | 0.064 | 20 | 38 | –
6 | COC(=O)[C@H]1Cc2c([nH]c3ccccc23)[C@H](c2ccc(C(=O)NCCOCCOCCNC(=O)CC34CC5CC(CC(C5)C3)C4)cc2)N1C(=O)CCl | 0.064 | – | – | –
7 | COC(=O)[C@H]1Cc2c([nH]c3ccccc23)[C@H](c2ccc(C(=O)NCCCCCCCNC(C)=O)cc2)N1C(=O)CCl | 0.38 | 5 | 6 | –
8 | COC(=O)[C@H]1Cc2c([nH]c3ccccc23)[C@H](c2ccc(C(=O)NCCOCCOCCOCCNC(=O)CC34CC5CC(CC(C5)C3)C4)cc2)N1C(=O)CCl | 0.498 | – | – | –
9 | COC(=O)[C@H]1Cc2c([nH]c3ccccc23)[C@H](c2ccc(C(=O)N3CCN(CCNC(=O)CC45CC6CC(CC(C6)C4)C5)CC3)cc2)N1C(=O)CCl | 0.071 | – | – | –
10 | COC(=O)[C@H]1Cc2c([nH]c3ccccc23)[C@H](c2ccc(C(=O)NCCCCCCCCNC(=O)CC34CC5CC(CC(C5)C3)C4)cc2)N1C(=O)CCl | 0.163 | 15 | 31 | –
11 | COC(=O)[C@H]1Cc2c([nH]c3ccccc23)[C@H](c2ccc(C(=O)NCCOCCNC(=O)CC34CC5CC(CC(C5)C3)C4)cc2)N1C(=O)CCl | 0.12 | – | – | –

Stronger by IC50 (HT-1080 [1]), values ahead:

Row | IC50 (HT-1080 [1]) [µM] | SMILES | Activity (HT-1080 [2]) [%] | Activity (HT-1080 [3]) [%] | further results
12 | 0.041 | COC(=O)[C@H]1Cc2c([nH]c3ccccc23)[C@H](c2ccc(C(=O)N3CCN(CCCCCCCCNC(=O)CC45CC6CC(CC(C6)C4)C5)CC3)cc2)N1C(=O)CCl | 35 | 58 | –
13 | 0.036 | COC(=O)[C@H]1Cc2c([nH]c3ccccc23)[C@H](c2ccc(C(=O)NCCCCCCCCCCNC(=O)CC34CC5CC(CC(C5)C3)C4)cc2)N1C(=O)CCl | 35 | 72 | –
14 | 0.03 | COC(=O)[C@H]1Cc2c([nH]c3ccccc23)[C@H](c2ccc(C(=O)N3CCN(CCCCCCNC(=O)CC45CC6CC(CC(C6)C4)C5)CC3)cc2)N1C(=O)CCl | 44 | 70 | –
15 | 0.028 | COC(=O)[C@H]1Cc2c([nH]c3ccccc23)[C@H](c2ccc(C(=O)NCCCCCCNC(=O)CC34CC5CC(CC(C5)C3)C4)cc2)N1C(=O)CCl | 44 | 59 | –
16 | 0.024 | COC(=O)[C@H]1Cc2c([nH]c3ccccc23)[C@H](c2ccc(C(=O)NCCCCCCCNC(=O)CC34CC5CC(CC(C5)C3)C4)cc2)N1C(=O)CCl | 47 | 78 | Activity (HT-1080 [6]): Dose-Dependent Effect; DC50 [7]: 0.019 µM; Activity (HT-1080 [8]): Active; Activity (HT-1080 [9]): 50%; Activity (HT-1080 [10]): Active; Activity (HT-1080 [11]): Tde; Activity (HT-1080 [12]): Active; Activity (HT-1080 [13]): Tde; Activity (HT-1080 [14]): inactive; Activity (HT-1080 [15]): inactive; IC50 (MDA-MB-231 [5]): 0.032 µM; IC50 (786-0): 0.046 µM; IC50 (OS-RC-2): 0.072 µM; fold change (FC) (MDA-MB-231 [16]): 4; Activity (HT-1080 [17]): Active; Activity (HT-1080 [18]): Active; Activity (HT-1080 [19]): inactive; Activity (HT-1080 [20]): inactive
